Experimental data from patent US20240115557A1, “INHIBITORS OF RNA-GUIDED NUCLEASES AND USES THEREOF” (The Brigham and Women's Hospital, Inc., priority 2022, published 2024).
Numbered stars: 1 amine (or outer) side, 2 acyl side, 3 side chain; on linkers, the order of the positions; unused ones are H or OH. Bridge positions count the residues as written; N and C are the ends. Square brackets hold non-standard residues; d marks the D form. Peptide text beside a SMILES is read from it. I, II: the chains in the order shown. Actinocin(9to1) = Cc1c2oc3c(C)ccc(C(=O)[*:1])c3nc-2c(C(=O)[*:2])c(N)c1=O; NMeV = CN[C@H](C(=O)O)C(C)C; Sar = CNCC(=O)O

Biological target: SpCas9 (Streptococcus pyogenes serotype M1, UniProt Q99ZW2)
Sequence (Q99ZW2 whole entry): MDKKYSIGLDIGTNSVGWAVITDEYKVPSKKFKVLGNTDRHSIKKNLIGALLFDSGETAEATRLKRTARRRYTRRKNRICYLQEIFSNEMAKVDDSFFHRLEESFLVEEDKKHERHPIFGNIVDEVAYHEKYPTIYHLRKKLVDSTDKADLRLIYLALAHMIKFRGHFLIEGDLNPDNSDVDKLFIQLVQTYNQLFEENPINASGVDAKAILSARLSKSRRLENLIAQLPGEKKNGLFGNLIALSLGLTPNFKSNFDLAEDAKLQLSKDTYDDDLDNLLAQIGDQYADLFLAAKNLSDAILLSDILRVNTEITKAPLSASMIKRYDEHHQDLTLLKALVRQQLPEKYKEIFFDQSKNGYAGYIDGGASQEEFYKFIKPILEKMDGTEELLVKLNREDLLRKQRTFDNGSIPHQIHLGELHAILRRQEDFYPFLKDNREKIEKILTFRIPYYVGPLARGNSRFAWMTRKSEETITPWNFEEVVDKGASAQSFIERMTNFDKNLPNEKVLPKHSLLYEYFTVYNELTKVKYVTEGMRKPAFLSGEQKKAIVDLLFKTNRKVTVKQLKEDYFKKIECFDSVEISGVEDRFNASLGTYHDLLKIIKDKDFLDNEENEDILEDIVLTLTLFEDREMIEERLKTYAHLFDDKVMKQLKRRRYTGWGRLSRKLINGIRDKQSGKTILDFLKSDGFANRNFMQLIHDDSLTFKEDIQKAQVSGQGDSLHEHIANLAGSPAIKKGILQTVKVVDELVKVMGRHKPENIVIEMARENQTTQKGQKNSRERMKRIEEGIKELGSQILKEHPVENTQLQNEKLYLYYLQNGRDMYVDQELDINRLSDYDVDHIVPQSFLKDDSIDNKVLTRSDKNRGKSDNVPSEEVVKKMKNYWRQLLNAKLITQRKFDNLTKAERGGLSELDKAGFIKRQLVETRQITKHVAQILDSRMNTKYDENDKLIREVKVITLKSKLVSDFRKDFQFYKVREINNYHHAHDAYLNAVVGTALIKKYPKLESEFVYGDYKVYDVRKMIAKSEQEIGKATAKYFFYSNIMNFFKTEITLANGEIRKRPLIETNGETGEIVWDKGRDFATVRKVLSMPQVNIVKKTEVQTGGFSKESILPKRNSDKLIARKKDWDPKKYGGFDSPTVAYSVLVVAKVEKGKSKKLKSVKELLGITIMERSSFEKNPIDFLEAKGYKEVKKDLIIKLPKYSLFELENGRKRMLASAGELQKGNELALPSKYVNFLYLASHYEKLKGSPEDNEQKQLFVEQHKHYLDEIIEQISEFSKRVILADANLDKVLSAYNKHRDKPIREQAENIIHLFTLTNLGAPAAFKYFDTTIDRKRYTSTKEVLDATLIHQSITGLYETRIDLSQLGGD
Assay: eGFP disruption assay, SpCas9, U2OS.eGFP.PEST cells
Type: cell-based
Settings: for Normalized Z rep1 / Z score Rep1: replicate 1; for SpCas9 eGFP disruption Rep1: replicate 1, raw readout; for Normalized Z rep2 / Z socre Rep2: replicate 2; for SpCas9 eGFP disruption Rep2: replicate 2, raw readout
Description: In some embodiments, the secondary assay may be an EGFP disruption assay. In such assay, a quantitative human cell-based reporter assay that enables rapid quantitation of targeted nuclease activities is used to characterize off-target cleavage of Cas9-based RNA guided endonucleases. In this assay, the activities of nucleases targeted to a single integrated EGFP reporter gene can be quantified by assessing loss of fluorescence signal in human U2OS.EGFP cells caused by inactivating frameshift insertion/deletion (indel) mutations introduced by error prone non-homologous end-joining (NHEJ) repair of nuclease-induced double-stranded breaks (DSBs).
In one protocol, U2OS.EGFP cells harboring a single integrated copy of an EGFP-PEST fusion gene are cultured (see e.g., Reyon et al., Nat Biotech 30, 460-465 (2012), which is herein incorporated by reference in its entirety). For transfections, 200,000 cells are Nucleofected with gRNA expression plasmid and pJDS246 together with 30 ng of a Td-tomato-encoding plasmid using the SE Cell Line 4D-Nucleofector™ X Kit (Lonza) according to the manufacturer's protocol. Cells are analyzed 2 days post-transfection using a BD LSRII flow cytometer. Transfections for optimizing gRNA/Cas9 plasmid concentration are performed in triplicate and all other transfections are performed in duplicate. PCR amplification is used for sequence verification of endogenous human genomic sites. PCR reactions are performed using Phusion Hot Start II high-fidelity DNA polymerase (NEB). Loci are amplified using touchdown PCR (98° C., 10 s; 72-62° C., −1° C./cycle, 15s; 72° C., 30 s] 10 cycles, [98° C., 10s; 62° C., 15s; 72° C., 30 s] 25 cycles). Alternatively, PCR for other targets is performed with 35 cycles at a constant annealing temperature of 68° C. or 72° C., and 3% DMSO or IM betaine, if necessary. PCR products are analyzed on a QIAXCEL capillary electrophoresis system to verify both size and purity. Validated products are treated with ExoSap-IT (Affymetrix) and sequenced by the Sanger method (MGH DNA Sequencing Core) to verify each target site.
Primary and secondary screening. The primary screen assayed a selection of unique chemical scaffolds derived from commercially available compounds and known bioactive molecular libraries (Table 7). Auto-fluorescent compounds were removed by a counter screen. Overall, the CAA was used to assay 122,409 small molecules with over 2,500 unique chemical scaffolds (FIG. 64F, Table 7). Of these compounds, 547 were selected as hits (Z score >3 in both replicates) for testing in orthogonal cell-based secondary assays. Hits were tested in duplicate in an eGFP disruption assay, wherein U2OS.eGFP.PEST cells^33 transfected with SpCas9 plasmid and eGFP-targeting gRNA plasmid were incubated with 20 μM of the compounds. In this assay, any compound that inhibited SpCas9 would rescue the loss of eGFP fluorescence. Here, toxic and auto-fluorescent compounds with a high GFP signal in cells were removed as false positives. […] Next, Applicants tested the 15 compounds in a luminescence-based gain-of-signal HiBiT knock-in assay, which involves SpCas9-mediated homology-directed tagging of GAPDH with a short peptide that luminesces upon complementation with a subunit derived from nanoluciferase.^34 Complementarily, the eGFP-disruption assay is fluorescence-based and involves error-prone DNA repair. As a counter-screen to remove false positives caused by cell death (viability <80%), the cell viability was measured after incubation.
For SAR studies and dose-response studies, 300,000 U2OS.eGFP.PEST cells were nucleofected with 300 ng of SpCas9 plasmid (Addgene #43861) and 30 ng of eGFP-targeting gRNA plasmid (Addgene #47511)^33 using SE Cell Line 4D-Nucleofector X Kit (Lonza) following the pulse program of DN-100. For RNP-based genome editing, 10 pmol of SpCas9 (GenScript #Z03385) and 12 pmol of gRNA were mixed and incubated for 5 min. […]

CCCCNC(=O)CN1CCN(c2ccc(C(=O)O)cc2NC(=O)c2ccccc2Cl)CC1 [Compound F086-0029]
Normalized Z rep1: −0.30 | Z score Rep1: −2.20 | SpCas9 eGFP disruption Rep1: 59.751 | Normalized Z rep2: −0.05 | Z socre Rep2: −0.46 | SpCas9 eGFP disruption Rep2: 61.703

CCCCN(CC)C(=O)C1CCCN(c2ccc(-c3ccccc3C)nn2)C1 (stereo not drawn) [Compound F305-0129]
Normalized Z rep1: −0.32 | Z score Rep1: −2.35 | SpCas9 eGFP disruption Rep1: 59.262 | Normalized Z rep2: −0.38 | Z socre Rep2: −3.50 | SpCas9 eGFP disruption Rep2: 52.541

Cc1cc(Sc2ccccc2NC(=O)c2cccc(F)c2)n2ncnc2n1 [Compound F518-0008]
Normalized Z rep1: −0.22 | Z score Rep1: −2.00 | SpCas9 eGFP disruption Rep1: 59.029 | Normalized Z rep2: −0.20 | Z socre Rep2: −3.02 | SpCas9 eGFP disruption Rep2: 61.293

Cc1cccc(C(=O)Nc2ccccc2Sc2cc(C)nc3ncnn23)c1 [Compound F518-0014]
Normalized Z rep1: −0.36 | Z score Rep1: −3.28 | SpCas9 eGFP disruption Rep1: 55.407 | Normalized Z rep2: −0.34 | Z socre Rep2: −5.07 | SpCas9 eGFP disruption Rep2: 57.92

CCC(=O)Nc1ccccc1Sc1cc(C)nc2ncnn12 [Compound F518-0049]
Normalized Z rep1: −0.09 | Z score Rep1: −0.86 | SpCas9 eGFP disruption Rep1: 62.276 | Normalized Z rep2: −0.23 | Z socre Rep2: −3.42 | SpCas9 eGFP disruption Rep2: 60.623

O=C(O)c1cc(N2CCCC2)ccc1NC(=O)C1CCCC1 [Compound F685-1588]
Normalized Z rep1: −0.26 | Z score Rep1: −2.44 | SpCas9 eGFP disruption Rep1: 57.803 | Normalized Z rep2: −0.23 | Z socre Rep2: −3.36 | SpCas9 eGFP disruption Rep2: 60.73

COc1ccc(S(=O)(=O)CCC(=O)Nc2nc(-c3ccncc3)cs2)cc1 [Cpd4]
Normalized Z rep1: −0.26 | Z score Rep1: −3.70 | SpCas9 eGFP disruption Rep1: 48.322 | Normalized Z rep2: −0.20 | Z socre Rep2: −4.05 | SpCas9 eGFP disruption Rep2: 47.796

CC(C)(C)OC(=O)NCCOc1ccc(S(=O)(=O)CCC(=O)Nc2nc(-c3ccncc3)cs2)cc1 [Cpd6]
Normalized Z rep1: −0.10 | Z score Rep1: −1.44 | SpCas9 eGFP disruption Rep1: 54.15 | Normalized Z rep2: 0.06 | Z socre Rep2: 1.16 | SpCas9 eGFP disruption Rep2: 57.456

N#Cc1[nH]c(=O)n(Cc2ccccc2)c1N [Cpd10]
Normalized Z rep1: 0.00 | Z score Rep1: 0.06 | SpCas9 eGFP disruption Rep1: 58.004 | Normalized Z rep2: 0.14 | Z socre Rep2: 2.94 | SpCas9 eGFP disruption Rep2: 60.748

Fc1cccc(-c2nn3c(-c4ccc5ccccc5n4)nnc3s2)c1 [D727-0740]
Normalized Z rep1: −0.57 | Z score Rep1: −4.14 | SpCas9 eGFP disruption Rep1: 53.347 | Normalized Z rep2: −0.08 | Z socre Rep2: −0.74 | SpCas9 eGFP disruption Rep2: 60.86

Cc1c2oc3c(C)ccc(C(=O)N[C@@H]4C(=O)N[C@H](C(C)C)C(=O)N5CCC[C@H]5C(=O)N(C)CC(=O)N(C)[C@@H](C(C)C)C(=O)O[C@@H]4C)c3nc-2c(C(=O)N[C@@H]2C(=O)N[C@H](C(C)C)C(=O)N3CCC[C@H]3C(=O)N(C)CC(=O)N(C)[C@@H](C(C)C)C(=O)O[C@@H]2C)c(N)c1=O [SAM001246846] (I: T[dV]P[Sar][NMeV] / II: T[dV]P[Sar][NMeV]; ester I:1-I:C, II:1-II:C; linker I:N-II:N via Actinocin(9to1))
Normalized Z rep1: −2.59 | Z score Rep1: −16.90 | SpCas9 eGFP disruption Rep1: 26.655 | Normalized Z rep2: −2.71 | Z socre Rep2: −26.02 | SpCas9 eGFP disruption Rep2: 24.765
